Drawing on patent US20020193422A1, “Anthranilamides and methods of their use” (priority 2001, published 2002), this text covers IC50 for 29 compounds.

One may read the IC50 as the concentration that inhibits the measured activity by half. A high value points to a need for much substance.

The target of this assay is T1, Human Kv1.5 channels (Homo sapiens, UniProt P22460).
T1 construct: expressed in transfected cells; host or cells: Xenopus laevis oocytes (injected with in vitro synthesized Kv1.5 coding RNA)
T1 sequence (P22460 whole entry): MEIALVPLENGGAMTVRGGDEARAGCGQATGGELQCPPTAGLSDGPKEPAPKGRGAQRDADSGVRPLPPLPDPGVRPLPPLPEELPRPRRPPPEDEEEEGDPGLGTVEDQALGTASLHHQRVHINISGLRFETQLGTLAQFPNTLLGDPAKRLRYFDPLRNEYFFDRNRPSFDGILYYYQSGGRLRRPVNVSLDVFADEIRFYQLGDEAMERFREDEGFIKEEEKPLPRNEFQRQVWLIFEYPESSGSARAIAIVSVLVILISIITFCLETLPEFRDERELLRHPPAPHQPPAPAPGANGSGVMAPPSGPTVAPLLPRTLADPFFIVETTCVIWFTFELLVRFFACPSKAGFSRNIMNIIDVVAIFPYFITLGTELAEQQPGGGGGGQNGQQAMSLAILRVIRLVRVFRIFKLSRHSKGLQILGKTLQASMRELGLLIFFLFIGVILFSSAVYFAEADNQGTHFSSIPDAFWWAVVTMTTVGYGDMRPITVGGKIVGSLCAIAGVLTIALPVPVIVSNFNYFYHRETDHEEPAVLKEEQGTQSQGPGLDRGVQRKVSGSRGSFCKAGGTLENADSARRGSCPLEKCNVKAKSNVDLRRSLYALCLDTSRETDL
The assay can be described thus: Kv1.5 currents in Xenopus oocytes, two-microelectrode voltage clamp. To be noted: human Kv1.5 expressed in Xenopus laevis oocytes; 500 ms voltage jumps to 0 mV and 40 mV; room temperature; percentage inhibition of control current fitted with Hill equation. Type of assay: cell-based. The procedure: Human Kv1.5 channels were expressed in xenopus oocytes. For this purpose, oocytes from Xenopus laevis were first isolated and defolliculated. Kv1.5 coding RNA synthesized in vitro was then injected into these oocytes. After Kv1.5 protein expression for 1-7 days, Kv1.5 currents were measured in the oocytes using the two-microelectrode voltage clamp technique. The Kv1.5 channels were activated here with 500 ms voltage jumps to 0 mV and 40 mV. The bath was flushed with a solution of the following: NaCl 96 mM, KCl 2 mM, CaCl2 1.8 mM, MgCl2 1 mM, HEPES 5 mM (titrated with NaOH to pH 7.4). These experiments were carried out at room temperature. The following were used for data collection and analysis: Geneclamp amplifier (Axon Instruments, Foster City, USA) and MacLab D/A converter and software (ADInstruments, Castle Hill, Australia). The compounds according to the invention were tested by adding them to the bath solution in different concentrations. The effects of the compounds were calculated as percentage inhibition of the Kv1.5 control current which was obtained when no compound was added to the solution. The data were then extrapolated using the Hill equation, in order to determine the inhibitory concentrations (IC50) for the respective compounds.
In the case of `COc1ccc(NS(=O)(=O)c2cccc(C(F)(F)F)c2)c(C(=O)NCCc2cccs2)c1` [Example 1], the IC50 was 3 µM.

For `COc1ccc(S(=O)(=O)Nc2cc(F)ccc2C(=O)N(C)Cc2ccccc2)cc1` [Example 2], the IC50 is 4.1 µM.

`COc1ccc(NS(=O)(=O)c2ccc(C)cc2)c(C(=O)NCc2ccc(C)o2)c1` [Example 3] had an IC50 of 2.1 µM.

Compound `Cc1cccc(NS(=O)(=O)c2ccc(Cl)cc2)c1C(=O)NCc1ccc(Cl)cc1` [Example 4] gave an IC50 of 2.4 µM.

Turning to `CCN(Cc1ccccc1)C(=O)c1ccccc1NS(=O)(=O)c1ccc(Cl)cc1` [Example 5], the IC50 came out at 3.2 µM.

`Cc1ccc(S(=O)(=O)Nc2ccccc2C(=O)NCc2ccccc2)cc1` [Example 6] came in with an IC50 of 4.1 µM.

Compound `CCN(Cc1ccccc1)C(=O)c1ccccc1NS(=O)(=O)c1ccc(C)cc1` [Example 7] gave an IC50 of 5 µM.

In turn, `Cc1ccc(S(=O)(=O)Nc2ccccc2C(=O)N(C)CCc2ccccc2)cc1` [Example 8] yielded an IC50 of 4.6 µM.

As to `CCN(Cc1ccccc1)C(=O)c1ccccc1NS(=O)(=O)c1ccccc1` [Example 9], half-maximal inhibition (IC50) was put at 4.7 µM.

In the case of `O=C(NCCc1ccccc1)c1ccccc1NS(=O)(=O)c1ccccc1` [Example 10], the midpoint of inhibition, the IC50, lay at 3.8 µM.

For the compound `CN(CCc1ccccc1)C(=O)c1ccccc1NS(=O)(=O)c1ccccc1` [Example 11], the IC50 was 3.7 µM.

The compound `Cc1ccc(S(=O)(=O)Nc2ccc(F)cc2C(=O)NCc2ccccc2)cc1` [Example 12] showed an IC50 of 3.6 µM.

For the compound `CCN(Cc1ccccc1)C(=O)c1cc(F)ccc1NS(=O)(=O)c1ccc(C)cc1` [Example 13], the IC50 worked out at 3.7 µM.

In turn, `Cc1ccc(S(=O)(=O)Nc2ccc(F)cc2C(=O)NCCc2ccccc2)cc1` [Example 14] displayed a half-inhibitory concentration (IC50) of 4.1 µM.

As for `COc1ccc(S(=O)(=O)Nc2ccc(OC)cc2C(=O)N(C)Cc2ccccc2)cc1` [Example 15], the IC50 was found to be 4.5 µM.

Take `COc1ccc(CNC(=O)c2cc(OC)ccc2NS(=O)(=O)c2ccc(Cl)cc2)cc1` [Example 16]: half-maximal inhibition (IC50) required 3.3 µM.

The compound `CCN(C(=O)c1cc(C)ccc1NS(=O)(=O)c1ccc(C)cc1)c1ccccc1` [Example 17] gave an IC50 of 1.6 µM.

Take `Cc1ccc(S(=O)(=O)Nc2ccccc2C(=O)NCc2cccc(C)c2)cc1` [Example 18]: the IC50 came out at 3.5 µM.

In turn, `COc1ccc(NS(=O)(=O)c2ccc(C)cc2)c(C(=O)NCCc2cccs2)c1` [Example 19] returned an IC50 of 2.6 µM.

In the case of `Cc1ccc(CNC(=O)c2c(C)cccc2NS(=O)(=O)c2ccc(C)c(Cl)c2)o1` [Example 20], the IC50 is 3.8 µM.

Regarding `CCCCS(=O)(=O)Nc1ccc(C)cc1C(=O)NCc1ccc(Cl)cc1` [Example 21], 6.1 µM corresponded to half-maximal inhibition (IC50).

In the case of `O=C(NCc1ccccc1)c1cc(Cl)ccc1NS(=O)(=O)c1ccc(Cl)cc1` [Example 22], the IC50 is 6 µM.

As to `COc1ccc(NS(=O)(=O)c2cccc3cccnc23)c(C(=O)NCCc2ccc(OC)c(OC)c2)c1` [Example 23], inhibition was half-maximal at 6.9 µM (IC50).

As to `CN(Cc1ccccc1)C(=O)c1ccccc1NS(=O)(=O)c1cccc2cccnc12` [Example 24], the IC50 stood at 4.6 µM.

For `CCc1ccc(S(=O)(=O)Nc2ccccc2C(=O)N(CC)c2ccccc2)cc1` [Example 25], the concentration for half-maximal inhibition (IC50) turned out to be 4.2 µM.

Consider `CCN(C(=O)c1ccccc1NS(=O)(=O)c1ccc2ccccc2c1)c1ccccc1` [Example 26], for which the IC50 came out at 5.6 µM.

The compound `CCN(C(=O)c1ccccc1NS(=O)(=O)c1ccc(C)cc1OC)c1ccccc1` [Example 27] showed an IC50 of 3 µM.

Compound `CCN(C(=O)c1ccccc1NS(=O)(=O)c1cccc2cccnc12)c1ccccc1` [Example 28] registered an IC50 of 1.2 µM.

As for `CCN(C(=O)c1ccccc1NS(=O)(=O)c1cccc2ccccc12)c1ccccc1` [Example 29], the half-inhibitory concentration (IC50) came to 1.9 µM.
